# Source: the supplement of paper PMC10733146
# Tests used:
# Assay in all cases: viability relative to DMSO control (fraction); higher = less drug effect (more viable cells)
# Settings in all cases: 48 h
# CPI-169 = compound: CCS(=O)(=O)N1CCC([C@@H](C)n2c(C)c(C(=O)NCc3c(OC)cc(C)[nH]c3=O)c3ccccc32)CC1 [CPI-169]
# Method in brief: (§1)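 Compounds were pre-plated at five concentrations, one well each, in 384-well plates, and primary mononuclear tumour cells were plated on them at 4 × 10^4 cells per well. The cells, fresh or cryopreserved, had been Ficoll-isolated from blood or bone marrow or taken from processed lymph node. After 48 h at 37 °C and 5% CO2 in RPMI-1640 with penicillin/streptomycin, L-glutamine and human serum, viability was read as CellTiter-Glo luminescence relative to the median of 16 inner DMSO wells.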
# Tofacitinib = compound: C[C@@H]1CCN(C(=O)CC#N)C[C@@H]1N(C)c1ncnc2[nH]ccc12 [Tofacitinib]
# Method in brief: as §1
# Everolimus = compound: CO[C@H]1C[C@@H]2CC[C@@H](C)[C@@](O)(O2)C(=O)C(=O)N2CCCC[C@H]2C(=O)O[C@H]([C@H](C)C[C@@H]2CC[C@@H](OCCO)[C@H](OC)C2)CC(=O)[C@H](C)/C=C(\C)[C@@H](O)[C@@H](OC)C(=O)[C@H](C)C[C@H](C)/C=C/C=C/C=C/1C [Everolimus]
# Method in brief: as §1
# EPZ-6438 = compound: CCN(c1cc(-c2ccc(CN3CCOCC3)cc2)cc(C(=O)NCc2c(C)cc(C)[nH]c2=O)c1C)C1CCOCC1 [EPZ-6438]
# Method in brief: as §1
# Bendamustine = compound: Cn1c(CCCC(=O)O)nc2cc(N(CCCl)CCCl)ccc21 [Bendamustine]
# Method in brief: as §1
# Etoposide = compound: COc1cc([C@@H]2c3cc4c(cc3[C@@H](O[C@@H]3O[C@@H]5CO[C@@H](C)O[C@H]5[C@H](O)[C@H]3O)[C@H]3COC(=O)[C@H]23)OCO4)cc(OC)c1O [Etoposide]
# Method in brief: as §1
# Selinexor = compound: O=C(/C=C\n1cnc(-c2cc(C(F)(F)F)cc(C(F)(F)F)c2)n1)NNc1cnccn1 [Selinexor]
# Method in brief: as §1
# SGC 0946 = compound: CC(C)N(CCCNC(=O)Nc1ccc(C(C)(C)C)cc1)C[C@H]1O[C@@H](n2cc(Br)c3c(N)ncnc32)[C@H](O)[C@@H]1O [SGC 0946]
# Method in brief: as §1
# Entospletinib = compound: c1cn2cc(-c3ccc4cn[nH]c4c3)nc(Nc3ccc(N4CCOCC4)cc3)c2n1 [Entospletinib]
# Method in brief: as §1
# Palbociclib = compound: CC(=O)c1c(C)c2cnc(Nc3ccc(N4CCNCC4)cn3)nc2n(C2CCCC2)c1=O [Palbociclib]
# Method in brief: as §1
# Midostaurin hydrate = compound: CO[C@@H]1[C@H](N(C)C(=O)c2ccccc2)C[C@H]2O[C@]1(C)n1c3ccccc3c3c4c(c5c6ccccc6n2c5c31)C(=O)NC4 [Midostaurin hydrate]
# Method in brief: as §1
test system,measurement,setting,value
primary DLBCL patient cells (S049),viability,CPI-169; 0.024 µM,1.03
same,viability,CPI-169; 0.12 µM,1.02
same,viability,CPI-169; 0.6 µM,1.05
same,viability,CPI-169; 3 µM,0.991
same,viability,CPI-169; 15 µM,0.97
same,viability,Tofacitinib; 0.024 µM,0.811
same,viability,Tofacitinib; 0.12 µM,0.775
same,viability,Tofacitinib; 0.6 µM,0.926
same,viability,Tofacitinib; 3 µM,1.01
same,viability,Tofacitinib; 15 µM,1.32
same,viability,Everolimus; 0.0032 µM,1.1
same,viability,Everolimus; 0.016 µM,1.04
same,viability,Everolimus; 0.08 µM,1.09
same,viability,Everolimus; 0.4 µM,1.05
same,viability,Everolimus; 2 µM,1.02
same,viability,EPZ-6438; 0.024 µM,1.08
same,viability,EPZ-6438; 0.12 µM,1.08
same,viability,EPZ-6438; 0.6 µM,1.03
same,viability,EPZ-6438; 3 µM,1.05
same,viability,EPZ-6438; 15 µM,0.811
same,viability,Bendamustine; 0.032 µM,0.986
same,viability,Bendamustine; 0.16 µM,0.994
same,viability,Bendamustine; 0.8 µM,1.05
same,viability,Bendamustine; 4 µM,1.11
same,viability,Bendamustine; 20 µM,0.937
same,viability,Etoposide; 0.032 µM,0.907
same,viability,Etoposide; 0.16 µM,1.01
same,viability,Etoposide; 0.8 µM,0.962
same,viability,Etoposide; 4 µM,0.882
same,viability,Etoposide; 20 µM,0.548
same,viability,Selinexor; 0.008 µM,0.54
same,viability,Selinexor; 0.04 µM,0.486
same,viability,Selinexor; 0.2 µM,0.499
same,viability,Selinexor; 1 µM,0.669
same,viability,Selinexor; 5 µM,0.586
same,viability,SGC 0946; 0.024 µM,0.919
same,viability,SGC 0946; 0.12 µM,1.05
same,viability,SGC 0946; 0.6 µM,0.926
same,viability,SGC 0946; 3 µM,0.719
same,viability,SGC 0946; 15 µM,0.183
same,viability,Entospletinib; 0.024 µM,0.951
same,viability,Entospletinib; 0.12 µM,0.834
same,viability,Entospletinib; 0.6 µM,0.804
same,viability,Entospletinib; 3 µM,0.886
same,viability,Entospletinib; 15 µM,0.892
same,viability,Palbociclib; 0.024 µM,0.999
same,viability,Palbociclib; 0.12 µM,0.968
same,viability,Palbociclib; 0.6 µM,0.88
same,viability,Palbociclib; 3 µM,0.496
same,viability,Palbociclib; 15 µM,0.0932
primary AML patient cells (S055),viability,CPI-169; 0.024 µM,0.982
same,viability,CPI-169; 0.12 µM,0.989
same,viability,CPI-169; 0.6 µM,1.07
same,viability,CPI-169; 3 µM,1.03
same,viability,CPI-169; 15 µM,1
same,viability,Tofacitinib; 0.024 µM,0.979
same,viability,Tofacitinib; 0.12 µM,0.964
same,viability,Tofacitinib; 0.6 µM,0.913
same,viability,Tofacitinib; 3 µM,0.949
same,viability,Tofacitinib; 15 µM,0.946
same,viability,Everolimus; 0.0032 µM,0.904
same,viability,Everolimus; 0.016 µM,0.96
same,viability,Everolimus; 0.08 µM,0.89
same,viability,Everolimus; 0.4 µM,0.951
same,viability,Everolimus; 2 µM,0.914
same,viability,EPZ-6438; 0.024 µM,1.01
same,viability,EPZ-6438; 0.12 µM,1.04
same,viability,EPZ-6438; 0.6 µM,0.976
same,viability,EPZ-6438; 3 µM,0.97
same,viability,EPZ-6438; 15 µM,0.917
same,viability,Bendamustine; 0.032 µM,0.978
same,viability,Bendamustine; 0.16 µM,1.02
same,viability,Bendamustine; 0.8 µM,0.995
same,viability,Bendamustine; 4 µM,0.995
same,viability,Bendamustine; 20 µM,0.952
same,viability,Etoposide; 0.032 µM,1.03
same,viability,Etoposide; 0.16 µM,1
same,viability,Etoposide; 0.8 µM,0.989
same,viability,Etoposide; 4 µM,1.03
same,viability,Etoposide; 20 µM,0.937
same,viability,Selinexor; 0.008 µM,0.92
same,viability,Selinexor; 0.04 µM,0.861
same,viability,Selinexor; 0.2 µM,0.833
same,viability,Selinexor; 1 µM,0.575
same,viability,Selinexor; 5 µM,0.535
same,viability,Midostaurin hydrate; 0.024 µM,1.06
same,viability,Midostaurin hydrate; 0.12 µM,1.02
same,viability,Midostaurin hydrate; 0.6 µM,1.09
same,viability,Midostaurin hydrate; 3 µM,1.12
same,viability,Midostaurin hydrate; 15 µM,1.1
same,viability,SGC 0946; 0.024 µM,0.987
same,viability,SGC 0946; 0.12 µM,1
same,viability,SGC 0946; 0.6 µM,1.02
same,viability,SGC 0946; 3 µM,0.986
same,viability,SGC 0946; 15 µM,0.836
